Among the test systems are OVCAR-4 ovarian; MDA-MB-231 breast; SR leukemia; LOX IMVI melanoma; U251 CNS; RXF 393 renal; HL-60(TB) leukemia; HCC-2998 colon; OVCAR-3 ovarian; OVCAR-5 ovarian.
Holding throughout (test): NCI-60 cell line screen, 48 h

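Test compounds were applied to cells in 96-well plates for 48 hours at 5 doses. GI50 marks 50% less growth. TGI: concentration producing complete growth inhibition.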 Where only a bound is given, the exact number is not on record here.

For the compound `O=C(Nc1ccc(-c2nc3ccc(NC(=O)c4ccc(Cl)cc4)cc3[nH]2)cc1)c1ccc(Cl)cc1`, the GI50 is 1.76 µM in the experiment with OVCAR-4 ovarian; 3.68 µM with MDA-MB-231 breast; 0.769 µM in the experiment on SR leukemia; 1.94 µM in the experiment with LOX IMVI melanoma; 0.412 µM in the experiment with U251 CNS; 0.0186 µM with RXF 393 renal. Also, the GI50 is 4.12 µM with HL-60(TB) leukemia, 7.47 µM in the experiment with HCC-2998 colon, 3.31 µM in the experiment on OVCAR-3 ovarian and 5.45 µM in the experiment on OVCAR-5 ovarian. For the same compound, the TGI in the experiment with OVCAR-4 ovarian is 3.47 µM; in the experiment with MDA-MB-231 breast, 15.4 µM; with SR leukemia it was 4.34 µM; with LOX IMVI melanoma it was 11.4 µM; in the experiment with U251 CNS, 3.21 µM; with RXF 393 renal it was 1.93 µM. In addition, the TGI in the experiment on HL-60(TB) leukemia is 16.2 µM; in the experiment on HCC-2998 colon, 21.4 µM; in the experiment with OVCAR-3 ovarian it was 11.4 µM; with OVCAR-5 ovarian, 19.2 µM.

Take `CCNC1=CC(=O)c2ncccc2C1=O`: the GI50 is 1.64 µM in the experiment on OVCAR-4 ovarian; 2.66 µM with MDA-MB-231 breast; 3.71 µM in the experiment on SR leukemia; 1 µM with LOX IMVI melanoma; 2.49 µM in the experiment on U251 CNS; 5.65 µM in the experiment with RXF 393 renal. Moreover, the GI50 in the experiment on HL-60(TB) leukemia is 1.87 µM; with HCC-2998 colon it was 2.16 µM; in the experiment with OVCAR-3 ovarian it was 0.807 µM; with OVCAR-5 ovarian it was 1.79 µM. Besides, the TGI in the experiment on OVCAR-4 ovarian is 8.12 µM; with MDA-MB-231 breast it was 21.1 µM; with SR leukemia, 11 µM; with LOX IMVI melanoma it was 3.22 µM; in the experiment with U251 CNS it was 13.6 µM; with RXF 393 renal, 17.9 µM. The TGI came to 7.13 µM in the experiment with HL-60(TB) leukemia, 5.37 µM in the experiment on HCC-2998 colon, 5.41 µM in the experiment on OVCAR-3 ovarian and 3.47 µM with OVCAR-5 ovarian.

Consider `CC(C)=CCC[C@](C)(O)[C@H]1CC[C@]2(C)[C@@H]1CC[C@@H]1[C@@]3(C)CC[C@H](OC(=O)CCC(=O)O)C(C)(C)[C@@H]3CC[C@]12C`, for which the GI50 was 27.6 µM in the experiment on OVCAR-4 ovarian; 30.1 µM in the experiment with MDA-MB-231 breast; 19.4 µM in the experiment with SR leukemia; 16.6 µM in the experiment on LOX IMVI melanoma; 28.1 µM in the experiment with U251 CNS; 17.4 µM in the experiment on RXF 393 renal. Moreover, the GI50 in the experiment with HL-60(TB) leukemia is 22.2 µM; in the experiment with HCC-2998 colon, 30.6 µM; with OVCAR-3 ovarian, 15.9 µM; in the experiment with OVCAR-5 ovarian, 28.8 µM. Also, the TGI in the experiment on OVCAR-4 ovarian was above 100 µM; in the experiment on MDA-MB-231 breast it was 87.5 µM; with SR leukemia it was 56.5 µM; in the experiment with LOX IMVI melanoma, 30.7 µM; in the experiment on U251 CNS, above 100 µM; in the experiment with RXF 393 renal, 85 µM. Moreover, the TGI is 53.1 µM in the experiment on HL-60(TB) leukemia, above 100 µM in the experiment with HCC-2998 colon, 30.9 µM in the experiment with OVCAR-3 ovarian and 96.3 µM with OVCAR-5 ovarian.

For the compound `C[C@@H]1CC[C@H]2C(CN3CCN(CC4=C(C(F)(F)F)O[C@@H]5O[C@@]6(C)CC[C@H]7[C@H](C)CC[C@@H]4[C@@]57OO6)CC3)=C(C(F)(F)F)O[C@@H]3O[C@@]4(C)CC[C@@H]1[C@]32OO4`, the GI50 is 3.17 µM with OVCAR-4 ovarian; 7.85 µM in the experiment on MDA-MB-231 breast; 1.89 µM with SR leukemia; 2.3 µM in the experiment on LOX IMVI melanoma; 0.653 µM with U251 CNS; 1.05 µM in the experiment with RXF 393 renal. Moreover, the GI50 is 0.382 µM in the experiment on HL-60(TB) leukemia, 10.5 µM in the experiment with HCC-2998 colon, 1.84 µM in the experiment with OVCAR-3 ovarian and 1.45 µM with OVCAR-5 ovarian. Also, the TGI was above 100 µM in the experiment on OVCAR-4 ovarian; above 27.7 µM with MDA-MB-231 breast; above 100 µM in the experiment on SR leukemia; above 100 µM with LOX IMVI melanoma; above 39.9 µM in the experiment on U251 CNS; above 54.3 µM in the experiment with RXF 393 renal. Besides, the results for the TGI in the experiment on HCC-2998 colon, in the experiment on OVCAR-3 ovarian and in the experiment on OVCAR-5 ovarian were above 100 µM, above 24.9 µM and above 100 µM, respectively.

In the case of `Cc1cc(I)cc(CN(C)CCCCN2CCCC2)c1O`, the GI50 in the experiment with OVCAR-4 ovarian was 41.6 µM; in the experiment on MDA-MB-231 breast it was 18.8 µM; in the experiment on SR leukemia, 11.5 µM; with LOX IMVI melanoma it was 15.5 µM; in the experiment with U251 CNS it was 18.9 µM; in the experiment with RXF 393 renal it was 11.8 µM. Moreover, the GI50 is 16 µM in the experiment on HL-60(TB) leukemia, 18 µM in the experiment with HCC-2998 colon, 33.5 µM in the experiment with OVCAR-3 ovarian and 27.6 µM in the experiment with OVCAR-5 ovarian. For the same compound, the TGI is above 100 µM with OVCAR-4 ovarian; 51.1 µM with MDA-MB-231 breast; 29.4 µM in the experiment with SR leukemia; 30.8 µM with LOX IMVI melanoma; 49.5 µM in the experiment with U251 CNS; 31.8 µM with RXF 393 renal. Also, the TGI with HL-60(TB) leukemia is 35.2 µM; in the experiment with HCC-2998 colon, 36.3 µM; in the experiment on OVCAR-3 ovarian, above 100 µM; in the experiment with OVCAR-5 ovarian, above 100 µM.

Take `CCOc1ccc(N2C(N)=NC(N)=NC2(C)C)cc1`: the GI50 in the experiment on OVCAR-4 ovarian is above 100 µM; in the experiment with MDA-MB-231 breast, above 100 µM; with SR leukemia, 74.6 µM; in the experiment on LOX IMVI melanoma, 45.8 µM; in the experiment with U251 CNS, 36.6 µM; in the experiment with RXF 393 renal, above 100 µM. In addition, the GI50 is 72 µM in the experiment on HL-60(TB) leukemia, above 100 µM in the experiment on HCC-2998 colon, above 100 µM with OVCAR-3 ovarian and 39.7 µM with OVCAR-5 ovarian. For the same compound, the TGI in the experiment on OVCAR-4 ovarian, with MDA-MB-231 breast, in the experiment with SR leukemia, with LOX IMVI melanoma, in the experiment with U251 CNS and with RXF 393 renal was above 100 µM throughout. Further, the TGI in the experiment on HL-60(TB) leukemia, in the experiment with HCC-2998 colon, in the experiment with OVCAR-3 ovarian and in the experiment on OVCAR-5 ovarian was above 100 µM each time.

Source of the values: PubChem BioAssay (NCI).
